Results: patent US20240174648A1, “Small Molecule Compound” (Technoderma Medicines Pte Ltd, priority 2019, published 2024)

What was measured:
[1] = biological target: Tyk2 (Homo sapiens, UniProt P29597); assay: JAK kinase inhibition assay (EZ Reader, peptide substrate phosphorylation) - Tyk2; assay type: biochemical; conditions: Tyk2 kinase 1 nM; 8 concentration points, max 10 μM
Description: (§1) Assay for Identifying Inhibitory Effects of Compounds on JAK Kinases
(§2) Janus kinases (JAK), including JAK1, JAK2, JAK3 and Tyk2, transduce a cytokine-mediated signal through a JAK-STAT pathway. The kinases are 120-140 kDa in size and have 7 determined homology regions: JH1 to JH7. JH1 is an important region for enzymatic activity and has typical characteristics of tyrosine kinases. Phosphorylation of tyrosine leads to a change in the conformation of JAK protein, thereby promoting binding of substrate. The JAK-STAT system includes three main parts: receptors penetrating a cell membrane, Janus kinases binding to the receptors, and signal transducers and activators of transcription (STAT) for transmitting signals to a nucleus and DNA. When cytokines bind to receptors, JAK phosphorylates the receptors and attracts STAT proteins. The STAT proteins are also phosphorylated and combined with one another to form dimers. The dimers enter the nucleus and bind to DNA, thereby leading to gene transcription.
(§3) EZ Reader from PerkinElmer can be used to detect the phosphorylation of polypeptide substrates catalyzed by kinases. The device is based on microfluidic techniques, and can directly detect fluorescently labeled substrates and products. The separation step is achieved by controlling the pressure and electric field strength in the microfluidic chip. In kinase assays, a product conversion ratio is usually controlled to be 20-30%. A biological test is used to identify inhibitory effects of compounds on JAKs.
(§4) Compound powder was dissolved in DMSO, sealed and stored in a freezer under −20° C. The in-house compound Ref1 was used as a positive control for JAK1, JAK2 and Tyk2 tests, and Ref2 was used as a positive control for JAK3 tests.
(§5) S2.8. Assay buffer: 20 mM HEPES buffer, pH 7.4, 10 mM magnesium chloride, 0.01% bovine serum albumin BSA, 0.0005% Tween-20 and 1 mM dithiothreitol solution.
(§6) S2.9. Stop buffer: 180 mM HEPES buffer, 20 mM ethylenediaminetetraacetic acid and 0.2% coating reagent 3.
(§7) S2.10. Separation buffer: 100 mM HEPES buffer, 10 mM ethylenediaminetetraacetic acid, 0.0005% Tween 20, 0.1% coating reagent 3 and 1% dimethyl sulfoxide.
(§8) The compound was dissolved in dimethyl sulfoxide and diluted to 10 mM concentration, a certain volume of solution was taken and diluted to 0.6 mM concentration, 10 μL of the 0.6 mM dilution was added to a 384-well microplate, and then was diluted 3-fold with a total of 8 concentration points.
(§9) Positive control (HPE1): Ref1, final concentration: 10 μM […]
(§10) Negative control (ZPE): DMSO, final content: 1.6%
(§11) Compounds: maximum final concentration: 10 μM; 3-fold dilution, 8 concentration points and 2 duplicates.
(§12) S4.1. 250 nL of the compound was added to each well of the assay microplate by using ECHO, and centrifuged at 1000 rpm for 1 minute.
(§13) S4.2. 5 μL of the assay buffer was added and agitated for a few seconds to fully dissolve the compound.
(§14) S4.3. 5 μL of 3× substrate solution and 5 μL of 3× kinase solution were added and centrifuged at 800 rpm for 1 minute.
(§15) S4.4. Final concentrations of JAK1, JAK2, JAK3 and Tyk2 kinases in the reaction system were 20 nM, 1 nM, 1 nM and 1 nM respectively.
(§16) S4.5. Incubation at room temperature, where kinases had time differences, and different batches of kinases had time differences.
(§17) S4.6. When 20%-30% of the reaction completed, 15 μL of stop buffer was added to stop the reaction, and centrifuged at 1000 rpm for 2 minutes.
(§18) S4.7. The microplates were placed on EZ Reader for reading.
(§19) S4.8. Readings on EZ Reader were calculated by using a peak height, where product conversion ratio (%)=product/(product+substrate)*100.
(§20) 5. Data Processing: IC50 calculation
(§21) A graphing software Xlfit was used to form a concentration curve of the test compound, and an IC50 value was calculated.
(§22) “A” means “≥10 μM”; “B” means “≥1 μM and <10 μM”; “C” means “≥0.1 μM and <1 μM”; and “D” means “<0.1 μM”.

[2] = biological target: JAK1 (Homo sapiens, UniProt P23458); assay: JAK kinase inhibition assay (EZ Reader, peptide substrate phosphorylation) - JAK1; assay type: biochemical; conditions: JAK1 kinase 20 nM; 8 concentration points, max 10 μM
Description: as §1, §2, §3, §4, §5, §6, §7, §8, §9, §10, §11, §12, §13, §14, §15, §16, §17, §18, §19, §20, §21, §22

Chain of JAK1 (P23458 whole entry): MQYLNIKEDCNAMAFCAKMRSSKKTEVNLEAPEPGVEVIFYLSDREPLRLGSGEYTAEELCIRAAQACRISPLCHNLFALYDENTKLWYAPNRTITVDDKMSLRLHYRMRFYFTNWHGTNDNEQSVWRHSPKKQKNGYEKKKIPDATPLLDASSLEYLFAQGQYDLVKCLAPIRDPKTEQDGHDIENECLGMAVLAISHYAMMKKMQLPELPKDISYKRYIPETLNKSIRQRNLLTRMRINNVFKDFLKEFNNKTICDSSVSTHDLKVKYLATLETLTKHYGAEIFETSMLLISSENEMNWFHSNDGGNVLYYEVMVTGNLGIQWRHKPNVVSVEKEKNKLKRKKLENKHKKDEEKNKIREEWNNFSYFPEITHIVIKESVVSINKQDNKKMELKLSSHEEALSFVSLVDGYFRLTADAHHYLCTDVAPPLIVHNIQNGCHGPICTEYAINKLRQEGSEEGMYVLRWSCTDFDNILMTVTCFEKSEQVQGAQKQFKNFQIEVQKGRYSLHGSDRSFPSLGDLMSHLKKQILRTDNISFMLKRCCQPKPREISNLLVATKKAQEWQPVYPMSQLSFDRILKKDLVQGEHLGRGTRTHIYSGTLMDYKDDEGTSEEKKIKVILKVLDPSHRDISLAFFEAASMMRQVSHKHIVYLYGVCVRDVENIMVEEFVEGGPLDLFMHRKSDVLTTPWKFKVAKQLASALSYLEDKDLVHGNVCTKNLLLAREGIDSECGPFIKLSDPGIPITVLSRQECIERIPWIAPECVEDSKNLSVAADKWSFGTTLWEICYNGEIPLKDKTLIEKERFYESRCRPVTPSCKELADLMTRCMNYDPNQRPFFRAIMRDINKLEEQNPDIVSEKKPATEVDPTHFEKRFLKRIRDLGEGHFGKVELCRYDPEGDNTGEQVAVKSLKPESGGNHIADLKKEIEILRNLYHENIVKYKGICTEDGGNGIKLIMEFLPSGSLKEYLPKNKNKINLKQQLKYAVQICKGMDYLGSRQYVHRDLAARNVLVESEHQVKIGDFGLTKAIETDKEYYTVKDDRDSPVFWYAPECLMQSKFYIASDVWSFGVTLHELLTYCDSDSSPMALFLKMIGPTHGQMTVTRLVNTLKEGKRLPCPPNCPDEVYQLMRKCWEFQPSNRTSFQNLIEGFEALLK
Chain of Tyk2 (P29597 whole entry): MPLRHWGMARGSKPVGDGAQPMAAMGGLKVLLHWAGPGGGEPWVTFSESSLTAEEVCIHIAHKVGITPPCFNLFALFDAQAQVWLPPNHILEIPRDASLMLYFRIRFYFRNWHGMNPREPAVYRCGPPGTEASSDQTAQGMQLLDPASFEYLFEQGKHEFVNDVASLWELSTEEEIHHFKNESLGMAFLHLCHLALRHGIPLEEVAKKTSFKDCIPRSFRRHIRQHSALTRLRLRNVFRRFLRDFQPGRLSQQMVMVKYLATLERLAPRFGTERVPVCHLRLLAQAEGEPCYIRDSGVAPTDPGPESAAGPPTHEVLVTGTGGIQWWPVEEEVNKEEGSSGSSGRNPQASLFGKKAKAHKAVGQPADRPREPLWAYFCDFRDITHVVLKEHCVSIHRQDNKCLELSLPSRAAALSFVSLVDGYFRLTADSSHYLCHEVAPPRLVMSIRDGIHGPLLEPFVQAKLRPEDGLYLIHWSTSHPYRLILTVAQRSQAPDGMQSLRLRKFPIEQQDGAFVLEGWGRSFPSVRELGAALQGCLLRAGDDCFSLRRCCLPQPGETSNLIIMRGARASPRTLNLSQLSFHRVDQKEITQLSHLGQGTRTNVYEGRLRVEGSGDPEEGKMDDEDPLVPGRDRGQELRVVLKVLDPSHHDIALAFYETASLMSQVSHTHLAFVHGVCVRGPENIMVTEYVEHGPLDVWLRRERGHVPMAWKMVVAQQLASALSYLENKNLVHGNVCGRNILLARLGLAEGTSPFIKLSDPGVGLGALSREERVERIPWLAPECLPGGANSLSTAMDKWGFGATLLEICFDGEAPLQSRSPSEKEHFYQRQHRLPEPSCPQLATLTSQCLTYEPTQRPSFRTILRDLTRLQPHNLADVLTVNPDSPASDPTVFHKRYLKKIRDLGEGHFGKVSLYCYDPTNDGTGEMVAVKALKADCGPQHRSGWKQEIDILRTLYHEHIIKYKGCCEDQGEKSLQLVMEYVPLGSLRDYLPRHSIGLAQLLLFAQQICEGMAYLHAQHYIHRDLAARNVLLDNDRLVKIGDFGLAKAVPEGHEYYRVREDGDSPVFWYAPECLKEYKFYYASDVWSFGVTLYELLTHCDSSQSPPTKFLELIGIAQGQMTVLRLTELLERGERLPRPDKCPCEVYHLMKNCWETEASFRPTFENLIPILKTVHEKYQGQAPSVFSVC

| Structure (SMILES) | IC50 [1] | IC50 [2] |
| --- | --- | --- |
| Cn1cc(Nc2nccc(-c3ccc(NC(=O)C4CC4)c4[nH]ccc34)n2)cn1 [TDM-180869, N-(4-(2-((1-methyl-1H-pyrazol-4-yl)amino)pyrimidin-4-yl)-1H-indol-7-yl)cyclopropanecarboxamide] | 0.1 to 1 µM | 0.1 to 1 µM |
| Cn1cc(Nc2nccc(-c3ccc(NC(=O)CO)cc3)n2)cn1 [TDM-180791, 2-hydroxy-N-(4-(2-((1-methyl-1H-pyrazol-4-yl)amino)pyrimidin-4-yl)phenyl)acetamide] | 1 to 10 µM | 0.1 to 1 µM |
| Cn1cc(Nc2nccc(-c3ccc(NC(=O)C4(C)CC4)nc3)n2)cn1 [TDM-180853, 1-methyl-N-(5-(2-((1-methyl-1H-pyrazol-4-yl)amino)pyrimidin-4-yl)pyridin-2-yl)cyclopropane-1-carboxamide] | 1 to 10 µM | 1 to 10 µM |
| CN1CCN(Cc2ccc(-c3ccnc(Nc4cnn(C)c4)n3)cc2)CC1 [TDM-180788, N-(1-methyl-1H-pyrazol-4-yl)-4-(4-((4-methylpiperazine-1-yl)methyl)phenyl)pyrimidin-2-amine] | 1 to 10 µM | 1 to 10 µM |
| Cn1cc(Nc2nccc(-n3ccc4c(NC(=O)C5CC5)cccc43)n2)cn1 [TDM-180876, N-(1-(2-((1-methyl-1H-pyrazol-4-yl)amino)pyrimidin-4-yl)-1H-indole-4-yl)cyclopropanemethane] | 0.1 to 1 µM | < 0.1 µM |
| Cn1cc(Nc2nccc(-n3ccc4c(NC(=O)C5CC5(F)F)cccc43)n2)cn1 (stereo not drawn) [TDM-180885, 2,2-difluoro-N-(1-(2-((1-methyl-1H-pyrazol-4-yl)amino)pyrimidin-4-yl)-1H-indol-4-yl)cyclopropane-1-carboxamide] | 0.1 to 1 µM | < 0.1 µM |
| CCOCCS(=O)(=O)Nc1ccc(-c2ccnc(Nc3cnn(C)c3)n2)cn1 [TDM-180877, 2-ethyoxyl-N-(5-(2-((1-methyl-1H-pyrazol-4-yl)amino)pyrimidin-4-yl)pyridin-2-yl)ethanesulfonamide] | 1 to 10 µM | 0.1 to 1 µM |
| COCC(=O)Nc1ccc(-c2ccnc(Nc3cnn(C)c3)n2)cn1 [TDM-180831, 2-methoxy-N-(5-(2-((1-methyl-1H-pyrazol-4-yl)amino)pyrimidin-4-yl)pyridin-2-yl)acetamide] | ≥ 10 µM | 1 to 10 µM |
| Cn1cc(Nc2nccc(-c3ccc(NC(=O)CC#N)c4[nH]ccc34)n2)cn1 [TDM-180867, 2-cyano-N-(4-(2-((1-methyl-1H-pyrazol-4-yl)amino)pyrimidin-4-yl)-1H-indol-7-yl)acetamide] | 0.1 to 1 µM | 0.1 to 1 µM |
| Cn1cc(Nc2nccc(-c3ccnc(NC(=O)C4CC4)c3)n2)cn1 [TDM-180773, N-(4-(2-((1-methyl-1H-pyrazol-4-yl)amino)pyrimidin-4-yl)-pyridin-2-yl)cyclopropanemethane] | ≥ 10 µM | ≥ 10 µM |
| Cc1cc(-c2ccnc(Nc3cnn(C)c3)n2)ccc1C(=O)NCC#N [TDM-180779, N-(cyanomethyl)-2-methyl-4-(2-((1-methyl-1H-pyrazol-4-yl)amino)pyrimidin-4-yl)benzamide] | 1 to 10 µM | 1 to 10 µM |
| Cn1cc(Nc2nccc(-c3ccc(C(=O)NC4CC4)nc3)n2)cn1 [TDM-180826, N-cyclopropyl-5-(2-((1-methyl-1H-pyrazol-4-yl)amino)pyrimidin-4-yl)pyridinecarboxamide] | 1 to 10 µM | 1 to 10 µM |
| Cc1cc(-c2ccnc(Nc3cnn(C)c3)n2)ccc1NC(=O)CC(F)(F)F [TDM-180783, 3,3,3-trifluoro-N-(2-methyl-4-(2-((1-methyl-1H-pyrazol-4-yl)amino)pyrimidin-4-yl)phenyl)propanamide] | 1 to 10 µM | 0.1 to 1 µM |
| Cn1cc(Nc2nccc(-c3ccc(C(=O)NC4CC4(F)F)nc3)n2)cn1 (stereo not drawn) [TDM-180781, N-(2,2-difluorocyclopropyl)-5-(2-((1-methyl-1H-pyrazol-4-yl)amino)pyrimidin-4-yl)pyridinecarboxamide] | 1 to 10 µM | 1 to 10 µM |
| CCCS(=O)(=O)Nc1ccc(-c2ccnc(Nc3cnn(C)c3)n2)cc1 [TDM-180893, N-(4-(2-((1-methyl-1H-pyrazol-4-yl)amino)pyrimidin-4-yl)phenyl)propane-1-sulfonamide] | 0.1 to 1 µM | 0.1 to 1 µM |
| Cn1cc(Nc2nccc(-c3cnc(NC(=O)C4CC4(F)F)c(F)c3)n2)cn1 (stereo not drawn) [TDM-180888, 2,2-difluoro-N-(3-fluoro-5-(2-((1-methyl-1H-pyrazol-4-yl)amino)pyrimidin-4-yl)pyridin-2-yl)cyclopropanecarboxamide] | 0.1 to 1 µM | 0.1 to 1 µM |
| Cc1cc(-c2ccnc(Nc3cnn(C)c3)n2)ccc1C(=O)NCC#N [TDM-180784, N-(cyanomethyl)-2-methyl-4-(2-((1-methyl-1H-pyrazol-4-yl)amino)pyrimidin-4-yl)benzamide] | – | 0.1 to 1 µM |

Next, values leading:

| IC50 [1] | IC50 [2] | Structure (SMILES) |
| --- | --- | --- |
| 0.1 to 1 µM | < 0.1 µM | Cn1cc(Nc2nccc(-c3ccc(NC(=O)[C@H]4CC4(F)F)nc3)n2)cn1 [TDM-180939, (R)-2,2-difluoro-N-(5-(2-((1-methyl-1H-pyrazol-4-yl)amino)pyrimidin-4-yl)pyridin-2-yl)cyclopropane-1-carboxamide] |
| ≥ 10 µM | ≥ 10 µM | Cn1cc(Nc2nccc(-c3cnc(NS(=O)(=O)Cc4ccccc4)c(F)c3)n2)cn1 [TDM-180913, N-(3-fluoro-5-(2-((1-methyl-1H-pyrazol-4-yl)amino)pyrimidin-4-yl)pyridin-2-yl)-1-phenylmethanesulfonamide] |
| 0.1 to 1 µM | 0.1 to 1 µM | Cn1cc(Nc2nccc(-c3ccc(NC(=O)CC4CC4)c4[nH]ncc34)n2)cn1 [TDM-180917, 2-cyclopropyl-N-(4-(2-((1-methyl-1H-pyrazol-4-yl)amino)pyrimidin-4-yl)-1H-indazol-7-yl)acetamide] |
| 1 to 10 µM | 0.1 to 1 µM | Cc1cc(-c2ccnc(Nc3cnn(C)c3)n2)cnc1NC(=O)C1CC1(F)F (stereo not drawn) [TDM-180906, 2,2-difluoro-N-(3-methyl-5-(2-((1-methyl-1H-pyrazol-4-yl)amino)pyrimidin-4-yl)pyridin-2-yl)cyclopropane-1-carboxamide] |
| 1 to 10 µM | 1 to 10 µM | Cn1cc(Nc2nccc(-c3cnc(NC(=O)C4CC4)cn3)n2)cn1 [TDM-180914, N-(5-(2-((1-methyl-1H-pyrazol-4-yl)amino)pyrimidin-4-yl)pyrazin-2-yl)cyclopropanemethane] |
| ≥ 10 µM | ≥ 10 µM | CCS(=O)(=O)Nc1ncc(-c2ccnc(Nc3cnn(C)c3)n2)cn1 [TDM-180919, N-(2-((1-methyl-1H-pyrazol-4-yl)amino)-[4,5′-bipyrimidin]-2′-yl)ethanesulfonamide] |
| 1 to 10 µM | 0.1 to 1 µM | Cn1cc(Nc2nccc(-c3ccc(NC(=O)CC(F)(F)F)c4cc[nH]c34)n2)cn1 [TDM-180924, 3,3,3-trifluoro-N-(7-(2-((1-methyl-1H-pyrazol-4-yl)amino)pyrimidin-4-yl)-1H-indol-4-yl)propanamide] |
| 1 to 10 µM | 0.1 to 1 µM | Cc1cc(-c2ccnc(Nc3cnn(C)c3)n2)cnc1NC(=O)CC(F)(F)F [TDM-180908, 3,3,3-trifluoro-N-(3-methyl-5-(2-((1-methyl-1H-pyrazol-4-yl)amino)pyrimidin-4-yl)pyridin-2-yl)propanamide] |
| ≥ 10 µM | 1 to 10 µM | Cc1cc(-c2ccnc(Nc3cnn(C)c3)n2)cnc1NC(=O)C1CC1 [TDM-180910, N-(3-methyl-5-(2-((1-methyl-1H-pyrazol-4-yl)amino)pyrimidin-4-yl)pyridin-2-yl)cyclopropanemethane] |
